Source: patent publication US9572862B2, “Methods for promoting lipolysis and oxidation in liver and adipose tissue using catestatin” (The Regents of the University of California, priority 2012, dated 2017)
Entries after “also recorded” stand apart in the source; their conditions may differ. Non-standard residues stand in square brackets, D forms with d.

Columns and labels:
[1] = system: primary adipocytes; experiment: Lipolytic glycerol release from primary adipocytes; type: cell-based, mice; conditions: for effect on the lipolytic effect of isoproterenol: adipocytes, with isoproterenol 10 μM
Description: Mice were fasted for 12 hr prior to blood draw. Triglycerides (TG) and non-esterified fatty acids (NEFA) were assayed using kits from Wako Diagnostics (Richmond, Va.). Glycerol was assayed using a kit from Sigma (St Louis, Mo.). Media from the explant cultures and mouse serum were analysed for glycerol and NEFA as a measure of lipolysis. ELISA kits were used to determine plasma levels of leptin, adiponectin (Millipore, Billerica, Mass.) and CST (Bachem, Torrance, Calif.). For CST assay, plasma samples and reference standards were passed through mini C18 columns and the flow-through fractions were assayed. The same kits were used for measurements in culture media.
Primary adipocytes were isolated from epididymal fat pads essentially as described (43). Adipose tissues from WT and Chga-KO mice were minced in Krebs-Ringer bicarbonate-Hepes (KRBH) buffer, pH 7.4, containing 10 mM bicarbonate, 30 mM Hepes, 200 nM adenosine, 2.5 mM glucose and 1% fatty-acid-free BSA, and digested for 30-40 min with Type I collagenase (10 mg/g tissue; Invitrogen, Carlsbad, Calif.) with gentle swirling in a 37° C. incubator. The digestion mixture was then filtered through a nylon strainer and centrifuged at 400×g for 1 min. The oily layer (released from broken cells) above floating fat cells was skimmed off, and fat cells were recovered from the top and washed three times with warm KRBH.

[2] = system: HFD-fed Chga-KO mice; experiment: Peptide supplementation to HFD-fed Chga-KO mice (insulin sensitivity); type: in vivo; conditions: HFD (60%)-fed Chga-KO mice
[3] = system: Chga-/- mice; experiment: Blood pressure in hypertensive Chga-KO mice; type: in vivo
[4] = system: CST-KO mice; experiment: ITT in insulin resistant CST-KO mice with CST, RI-CST or NSC-177941; type: in vivo; conditions: for insulin sensitivity during ITT: NCD-fed CST-KO mice, insulin 0.4 mU/g BW
Description: FIG. 16. […] Figures in parentheses indicate number of animals.

[5] = system: Chga-/- mice; conditions: reference (8), cited from earlier work
[6] = reference (8); cited from earlier work
[7] = system: 3T3-L1 adipocytes; experiment: cAMP production in 3T3-L1 adipocytes; type: cell-based; conditions: CST 100 nM, ISO 10 μM, 10 min
[8] = system: PC-12 neuroendocrine cells; experiment: cAMP production in PC-12 cells; type: cell-based; conditions: CST 100 nM, ISO 10 μM, 10 min
[9] = system: AMPK and Stat3 phosphorylation; experiment: AMPK and Stat3 signaling in adipose tissue explants from Chga-KO mice; type: cell-based; conditions: leptin 1 μM 30 min
Description: FIG. 6. Regulation of AMPK and Stat3 signaling by CST in adipose tissue explants. Explants from Chga-KO mice were treated with saline or CST (100 nM for 30 min) and immunoblotted for pAMPK and AMPK (A). Adipose explants from WT and Chga-KO mice were immunoblotted for pAMPK and AMPK after treatment with saline or leptin (1 μM) for 30 min (B). pAMPK and AMPK (C) and pStat3 and Stat3 (D) signaling in adipose explants from WT and Chga-KO mice after treatment for 30 min with saline, CST (100 nM), leptin (1 μM) or leptin plus CST.
(§1) Adipose tissue explants were prepared as described (42). Epididymal fat pads from 12 hr fasted WT, Chga-KO, DIO and Ob/Ob mice with or without CST treatment were collected in Kreb-Ringer-phosphate (KRP) buffer containing 10 mM Hepes and 0.5% BSA. Tissues were minced to 1-2 mm size and treated with 100 nM CST, 1 μM leptin, or saline for 30 min (for signaling analysis) or 3 hr (for lipolysis and β-oxidation assays). Explants were also treated acutely with CST, leptin, a combination, or saline. At the end, incubation media were saved for analysis of glycerol and fatty acid release. Explants were washed prior to homogenization for immunoblotting and analysis of fatty acid oxidation.
(§2) Adipose tissue explants after treatments ex vivo and tissues from mice treated in vivo were homogenized in a buffer containing phosphatase and protease inhibitors (20 mM Tris/HCl (pH 7.5), 250 mM sucrose, 2 mM EDTA, 2 mM EGTA, 2 mM Na3VO4, 10 mM NaF, 2 mM Na4P2O7, 1 mM phenylmethylsulfonyl fluoride, 20 μg/ml leupeptin, 10 μg/ml aprotinin, and 1 μM LR-microcystin) as described (38,44). Homogenates were subjected to SDS-PAGE and immunoblotted. Primary antibodies for AMPK and Stat3 were from Cell Signaling Technology (Beverly, Mass.). The chemiluminescence kit was from Pierce (Rockford, Ill.).

[10] = system: adipose tissue explants from DIO mice; experiment: Lipolysis and fatty acid oxidation in adipose explants of DIO mice; type: cell-based
Description: (§3) FIG. 8. Lipolysis and fatty acid oxidation in the adipose tissue explants of DIO and Ob/Ob mice after treatment with saline or CST for 16 days. Explants were incubated with saline or leptin (1 μM) for 3 hr and the concentrations of glycerol (A&C) and NEFA (B&D) released into the media from DIO (A&B) and Ob/Ob (C&D) explants were determined as a measure of lipolysis. Homogenates of the explants from DIO (E) and Ob/Ob […] were used to determine their capacity for oxidation of U-^14C-palmitate in response to the treatment with saline, CST, leptin and CST+leptin. The ^14CO2 released was captured and counted as the measure of fatty acid oxidation.
as §1
(§4) Oxidation of radiolabeled palmitate in the homogenates of adipose tissue explants as described previously (45). For oxidation studies of cultured cells, HepG2 (hepatocytes) and 3T3-L1 preadipocytes were obtained from ATCC and cultured following supplier's protocol. Confluent 3T3-L1 cultures were differentiated into adipocytes by treating with a cocktail of dexamethasone (100 nM), IBMX ([…]) and insulin (100 nM) for 10 days. Media were then switched to serum-free DMEM with 1% BSA. Hepatocytes were assayed for lipogenesis and fat oxidation in response to CST treatment. Serum-free cultures were treated with CST (100 nM) for 24 hr followed by a 2 hr incubation with U^14C-palmitate (0.5 μCi/ml). Fatty acid oxidation in cells was determined by modifying a published method (46). Specifically, the culture media in 24-well plates were acidified with 10% HClO4 after incubation with the labeled fatty acid and immediately covered with a thick filter paper sheet (cut to size) soaked in 2 N NaOH and placed underneath the plastic lid. The whole plate was sealed with parafilm. After further incubation for 2 hr, the filter paper sheet was marked as circles around the rim of the wells and then the circles were excised. The filter discs were counted to determine the amount of ^14CO2 absorbed in the papers. Cells in the culture wells were lysed in 1 N NaOH and protein content was assayed using Folin's reagent (BioRad, Hercules, Calif.).

[11] = system: adipose tissue explants from Ob/Ob mice; experiment: Lipolysis and fatty acid oxidation in adipose explants of Ob/Ob mice; type: cell-based
Description: as §3, §1, §4

[12] = system: STAT3 and AMPK phosphorylation; experiment: Stat3 and AMPK signaling in adipose explants from DIO mice; type: cell-based; conditions: CST in vivo, leptin 1 μM ex vivo 30 min
Description: (§5) FIG. 9. Stat3 and AMPK signaling in the adipose tissue explants from DIO and Ob/Ob mice treated with saline, CST (in vivo) and leptin (ex vivo). Explants from DIO mice (A&B) and Ob/Ob mice (C&D) were incubated with saline or leptin (1 μM) for 30 min, homogenized and immunoblotted for phospho- and total Stat3 (A&C) as well as phospho- and total AMPK signals (B&D). Results are presented as the ratio of signal strength of phospho-over total.
as §1, §2

[13] = system: STAT3 and AMPK phosphorylation; experiment: Stat3 and AMPK signaling in adipose explants from Ob/Ob mice; type: cell-based; conditions: CST in vivo, leptin 1 μM ex vivo 30 min
Description: as §5, §1, §2

[14] = Screening of CST structural analogs for blood pressure reduction; conditions: in vivo
[15] = biological target: Chk2 protein kinase (Homo sapiens, UniProt O96017); conditions: Jobson et al. (9); cited from earlier work
Sequence of Chk2 protein kinase (O96017 whole entry): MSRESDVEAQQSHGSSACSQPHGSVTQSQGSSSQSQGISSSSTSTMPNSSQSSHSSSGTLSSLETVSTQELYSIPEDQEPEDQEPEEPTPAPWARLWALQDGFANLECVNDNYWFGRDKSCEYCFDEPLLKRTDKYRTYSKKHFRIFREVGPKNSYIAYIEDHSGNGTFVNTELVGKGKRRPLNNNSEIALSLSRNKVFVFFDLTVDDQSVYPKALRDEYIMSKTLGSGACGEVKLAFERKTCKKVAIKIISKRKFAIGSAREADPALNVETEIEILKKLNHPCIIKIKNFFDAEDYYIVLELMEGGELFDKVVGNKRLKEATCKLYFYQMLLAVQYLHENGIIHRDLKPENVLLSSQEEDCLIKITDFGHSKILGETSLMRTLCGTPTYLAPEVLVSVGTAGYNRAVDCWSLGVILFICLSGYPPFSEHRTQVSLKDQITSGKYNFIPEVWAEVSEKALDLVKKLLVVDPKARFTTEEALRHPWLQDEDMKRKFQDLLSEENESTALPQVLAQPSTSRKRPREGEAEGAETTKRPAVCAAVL

[16] = CST in vivo 16 days, leptin 1 μM ex vivo 3 hr

## Cc1ccc(N(CC2=NCCN2)c2cccc(O)c2)cc1 [phentolamine, 3-[(4,5-dihydro-1H-imidazol-2-ylmethyl)(4-methylphenyl)amino]phenol]
[1]
  effect on the lipolytic effect of isoproterenol: potentiated
[1]; primary adipocytes, substance alone
  glycerol release (lipolysis): stimulated lipolysis

## PST: anti-insulin CHGA-derived peptide pancreastatin (CHGA250-301) [reference compound]
[2]
  insulin sensitivity (GTT): reversed the phenotype

## CNC[C@H](O)c1cccc(O)c1 [phenylephrine, (R)-3-[-1-hydroxy-2-(methylamino)ethyl]phenol]
[1]
  effect on the lipolytic effect of isoproterenol: dampened

## amino-l372qpGpGrfGyararfslkmss352-carboxyl (SEQ ID NO:27) (H-[dL][dQ][dP]G[dP]G[dR][dF]G[dY][dA][dR][dA][dR][dF][dS][dL][dK][dM][dS][dS]-OH; SMILES CSCC[C@@H](NC(=O)[C@@H](CCCCN)NC(=O)[C@@H](CC(C)C)NC(=O)[C@@H](CO)NC(=O)[C@@H](Cc1ccccc1)NC(=O)[C@@H](CCCNC(=N)N)NC(=O)[C@@H](C)NC(=O)[C@@H](CCCNC(=N)N)NC(=O)[C@@H](C)NC(=O)[C@@H](Cc1ccc(O)cc1)NC(=O)CNC(=O)[C@@H](Cc1ccccc1)NC(=O)[C@@H](CCCNC(=N)N)NC(=O)CNC(=O)[C@H]1CCCN1C(=O)CNC(=O)[C@H]1CCCN1C(=O)[C@@H](CCC(N)=O)NC(=O)[C@H](N)CC(C)C)C(=O)N[C@H](CO)C(=O)N[C@H](CO)C(=O)O) [RI-CST, retro-inverso peptide equivalent of human CST]
[3]; R-I versus W-T isoform
  interval for which the therapeutic BP effect was sustained: > 8 h
[3]; monogenic model of hypertension
  high BP phenotype: effective in rescuing (reducing) the high BP phenotype
[4]; ITT in CST-KO mice
  persistence of the insulin-sensitizing effect: persisted throughout the experimental period
[4]
  insulin sensitivity during ITT: increasing sensitivity to insulin; also recorded: Improvement in insulin sensitivity
[5]; compared to CST
  period of BP suppression: > 8 h
[5]; hypertensive Chga-KO mice
  SBP: functional in reducing SBP
[6]
  protease degradation: fairly resistant

## CC(C)NCC(O)c1ccc(O)c(O)c1 (racemic) [isoproterenol, (RS)-4-[1-hydroxy-2-(isopropylamino)ethyl]benzene-1,2-diol, reference compound]
[7]
  cAMP production: stimulated
[8]
  cAMP production: stimulated

## leptin: adipokine hormone, ligand of leptin receptor (Ob-R)
[9]
  phosphorylation of AMPK following acute leptin treatment, compared to WT: decreased
  phosphorylation of STAT3 following acute leptin treatment, compared to WT: decreased
[10]
  palmitate oxidation: neither CST nor leptin alone stimulated oxidation
[10]; [16]
  NEFA release in the media: did not stimulate lipolysis
  glycerol release in the media: did not stimulate lipolysis
[11]
  palmitate oxidation: stimulatory for oxidation
[11]; [16]
  lipolysis (glycerol and NEFA release): stimulated lipolysis
[12]
  AMPK phosphorylation: did not stimulate
  STAT3 phosphorylation: did not stimulate
[13]
  AMPK phosphorylation: stimulated phosphorylation
  STAT3 phosphorylation: stimulated phosphorylation

## C/C(=N\N=C(N)N)c1cccc(NC(=S)Nc2cccc(/C(C)=N/N=C(N)N)c2)c1 [NSC-177941, 1,3-bis[3-[(E)-N-(diaminomethyllideneamino)-C-methylcarbonimidoyl]phenyl]thiourea]
[4]; ITT in CST-KO mice
  effect on insulin sensitivity in the first 30 min: ineffective
  time window of increase in insulin sensitivity: 30 to 90 min
[4]
  insulin sensitivity during ITT: transient increase in insulin sensitivity
[4]; listed as NSC-177941
  insulin sensitivity during ITT: Improvement in insulin sensitivity
[14]
  blood pressure: reducing blood pressure
[15]
  inhibition of Chk2 protein kinase activity: inactive
